# Read-outs that look alike come from different tables or passages of the source.
# What was measured:
# [1] = target: VHL (Homo sapiens, UniProt P40337); assay: NanoBRET VHL target engagement in HEK293 cells; type: binding; design: host or cells: HEK293; conditions: for IC50: read-out: IC50 VHL tracer displacement
# Method: (§1) For VHL and LRRK2 target engagement experiments in live and permeabilized cells, the HEK293 cells were transfected with VHL-NanoLuc fusion vector (Promega, N275A) or LRRK2-NanoLuc fusion vector (Promega, NV3401) following Promega's protocol and seeded into white 384-well plate (Corning3570) at a density of 6000 cells/well. To measure NanoBRET in permeabilized cells, the cells were treated with 50 μg/mL digitonin (Sigma, D141), 125 nM VHL tracer/125 nM LRRK2 tracer, testing compounds at decreasing concentrations (12 concentrations with 2-fold serial dilution starting from 33 μM), and NanoBRET NanoGlo Substrate (Promega) at concentration recommended by the manufacturer's protocol. In the maximum signal control samples (DMSO control), DMSO was added instead of testing compounds. In the minimum signal control samples (no tracer control), DMSO and tracer dilution buffer were used to replace testing compounds and tracer separately. The filtered luminescence was measured within 10 min following addition of the substrate on a GloMax Discover microplate reader (Promega) or a PHERAstar (BMG LABTECH) plate reader equipped with a 450-nm bandpass filter (donor) and a 600-nm long pass filter (acceptor). To measure NanoBRET in live cells, the cells were treated with 250 nM VHL tracer/500 nM LRRK2 tracer, testing compounds at testing compounds at decreasing concentrations (12 concentrations with 2-fold serial dilution starting from 33 μM) and incubated at 37° C. in an incubator for 2 h. The plates were then cooled down and added with NanoBRET NanoGlo Substrate and Extracellular NanoLuc Inhibitor (Promega, N2160) before performing the same NanoBRET reading as the permeabilized mode on plate readers. NanoBRET ratio of each well was expressed in milliBRET according to the equation: mBRET=[(signal at […]/signal at 450 nM)−(signal at 610 nMno tracer control/signal at 450 nMno tracer control)]×1000. The fractional occupancy was calculated according to the equation: fractional occupancy=(mBRETtesting compound−mBRETno tracer control)/(mBRETDMSO control−mBRETno tracer control).
# [2] = target: LRRK2 (Homo sapiens, UniProt Q5S007); assay: NanoBRET LRRK2 target engagement in HEK293 cells; type: binding; design: host or cells: HEK293; conditions: for IC50: read-out: IC50 LRRK2 tracer displacement
# Method: as §1
# [3] = target: T1, LRRK2^G2019S (Mus musculus, UniProt Q5S006, G2019S); assay: Western blot LRRK2 degradation in LRRK2^G2019S MEFs; type: cell-based; conditions: dose response
# T1 construct: endogenous in cells; host or cells: LRRK2[G2019S] mouse embryonic fibroblasts (MEFs)
# [4] = tested on: Rab10 pThr73; assay: Rab10 Thr73 dephosphorylation (immunoblot) in LRRK2^G2019S MEFs; type: cell-based, mouse; conditions: for inhibition at 1 µM: read-out: pRab10 inhibited in LRRK2^G2019S MEFs; for EC50: dose response, read-out: G2019S MEFs-pRab10-dephosphorylation EC50
# [5] = Mus musculus, 1 μM/4 h treatment
# [6] = time course at 300 nM, LRRK2^G2019S MEFs
# VHL, sequence (P40337 whole entry, the tested form may be a part): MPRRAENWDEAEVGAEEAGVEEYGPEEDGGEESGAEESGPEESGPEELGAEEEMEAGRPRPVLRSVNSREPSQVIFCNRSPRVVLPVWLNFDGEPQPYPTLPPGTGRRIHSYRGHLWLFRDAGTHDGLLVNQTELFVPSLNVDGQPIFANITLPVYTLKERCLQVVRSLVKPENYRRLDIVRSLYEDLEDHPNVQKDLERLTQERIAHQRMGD
# T1 sequence (Q5S006 whole entry G2019S): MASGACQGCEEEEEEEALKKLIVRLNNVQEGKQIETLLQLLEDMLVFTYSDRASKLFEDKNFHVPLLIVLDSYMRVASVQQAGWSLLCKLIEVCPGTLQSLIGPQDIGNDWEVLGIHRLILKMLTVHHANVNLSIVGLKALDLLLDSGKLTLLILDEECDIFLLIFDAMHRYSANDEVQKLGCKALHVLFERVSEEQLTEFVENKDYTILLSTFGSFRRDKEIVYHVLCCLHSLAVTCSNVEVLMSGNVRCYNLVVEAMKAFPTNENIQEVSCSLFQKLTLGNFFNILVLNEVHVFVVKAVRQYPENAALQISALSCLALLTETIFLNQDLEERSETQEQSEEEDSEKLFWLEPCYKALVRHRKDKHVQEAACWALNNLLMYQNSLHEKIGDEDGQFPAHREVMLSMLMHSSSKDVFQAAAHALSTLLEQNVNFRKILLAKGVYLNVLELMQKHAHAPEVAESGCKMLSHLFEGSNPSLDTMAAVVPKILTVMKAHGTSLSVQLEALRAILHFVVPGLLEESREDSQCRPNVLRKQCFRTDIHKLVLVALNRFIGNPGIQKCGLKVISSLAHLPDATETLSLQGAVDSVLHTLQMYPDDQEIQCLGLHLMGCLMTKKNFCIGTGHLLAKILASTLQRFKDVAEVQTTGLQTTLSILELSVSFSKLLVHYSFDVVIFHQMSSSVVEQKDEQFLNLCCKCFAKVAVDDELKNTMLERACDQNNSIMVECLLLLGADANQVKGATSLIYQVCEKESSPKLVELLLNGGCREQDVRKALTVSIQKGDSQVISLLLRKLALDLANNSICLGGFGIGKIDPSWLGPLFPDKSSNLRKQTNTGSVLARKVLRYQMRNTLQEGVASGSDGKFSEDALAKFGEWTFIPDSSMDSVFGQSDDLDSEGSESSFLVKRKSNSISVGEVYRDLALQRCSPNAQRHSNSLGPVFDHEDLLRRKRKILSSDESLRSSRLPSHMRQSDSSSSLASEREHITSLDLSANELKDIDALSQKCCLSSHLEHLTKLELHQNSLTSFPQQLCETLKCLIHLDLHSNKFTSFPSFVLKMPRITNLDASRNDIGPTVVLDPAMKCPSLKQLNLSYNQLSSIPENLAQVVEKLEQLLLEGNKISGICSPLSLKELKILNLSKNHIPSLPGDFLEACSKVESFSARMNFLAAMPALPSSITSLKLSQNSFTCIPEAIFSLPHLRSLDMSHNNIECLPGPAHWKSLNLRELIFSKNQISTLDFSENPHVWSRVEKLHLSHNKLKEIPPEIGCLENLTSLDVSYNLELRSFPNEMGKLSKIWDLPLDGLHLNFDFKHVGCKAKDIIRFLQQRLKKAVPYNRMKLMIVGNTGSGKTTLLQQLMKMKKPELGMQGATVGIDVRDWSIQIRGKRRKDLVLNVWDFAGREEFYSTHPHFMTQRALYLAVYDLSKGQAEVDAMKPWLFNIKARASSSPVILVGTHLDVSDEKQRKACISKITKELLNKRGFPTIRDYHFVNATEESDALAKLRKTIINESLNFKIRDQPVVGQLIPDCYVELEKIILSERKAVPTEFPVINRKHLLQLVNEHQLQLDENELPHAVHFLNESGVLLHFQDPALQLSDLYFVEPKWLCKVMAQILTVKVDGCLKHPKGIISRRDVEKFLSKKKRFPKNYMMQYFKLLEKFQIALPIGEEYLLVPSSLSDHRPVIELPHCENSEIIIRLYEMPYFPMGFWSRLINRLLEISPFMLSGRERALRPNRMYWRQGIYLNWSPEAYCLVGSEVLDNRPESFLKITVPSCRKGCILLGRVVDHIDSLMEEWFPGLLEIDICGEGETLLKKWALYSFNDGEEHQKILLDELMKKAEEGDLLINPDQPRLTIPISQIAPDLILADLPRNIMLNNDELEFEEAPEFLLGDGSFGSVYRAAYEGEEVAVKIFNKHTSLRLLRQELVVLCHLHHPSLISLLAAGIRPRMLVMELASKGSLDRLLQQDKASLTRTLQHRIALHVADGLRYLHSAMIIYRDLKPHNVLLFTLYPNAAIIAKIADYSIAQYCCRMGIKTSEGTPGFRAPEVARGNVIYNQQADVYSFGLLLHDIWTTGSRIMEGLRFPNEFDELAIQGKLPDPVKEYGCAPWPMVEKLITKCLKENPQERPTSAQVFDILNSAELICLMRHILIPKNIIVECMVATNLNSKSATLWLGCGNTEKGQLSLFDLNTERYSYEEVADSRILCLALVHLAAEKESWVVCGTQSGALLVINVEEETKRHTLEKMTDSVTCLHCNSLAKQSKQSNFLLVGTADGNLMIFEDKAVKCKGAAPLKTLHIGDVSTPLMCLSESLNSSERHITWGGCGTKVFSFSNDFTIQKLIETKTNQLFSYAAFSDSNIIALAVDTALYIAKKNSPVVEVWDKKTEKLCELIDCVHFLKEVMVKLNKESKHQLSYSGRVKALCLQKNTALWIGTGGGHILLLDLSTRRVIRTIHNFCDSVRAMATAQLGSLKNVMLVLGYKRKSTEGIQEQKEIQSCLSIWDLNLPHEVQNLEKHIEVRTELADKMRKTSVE
Compound,IC50 ([1]; live HEK293 cells) [nM],IC50 ([1]; permeabilized HEK293 cells) [nM],IC50 ([2]; live HEK293 cells) [nM],IC50 ([2]; permeabilized HEK293 cells) [nM],DC50 ([3]; 4 h treatment) [nM],Dmax on G2019S MEFs ([3]; 4 h treatment),"inhibition at 1 µM [4, 5] [%]","inhibition at 1 µM ([4]; Mus musculus, 1 μM/24 h treatment) [%]","EC50 ([4]; Mus musculus, 4 h treatment) [nM]","Dmax at 0.3 µM ([4]; Mus musculus, time course at 300 nM, LRRK2^G2019S MEFs) [%]","T1/2 of Rab10 dephosphorylation (G2019S) [4, 6] [min]",VHL tracer displacement (in words) ([1]; permeabilized HEK293 cells),LRRK2 tracer displacement (in words) ([2]; permeabilized HEK293 cells),"IC50 ratio IC50, per/IC50, live (VHL engagement) ([1]; permeabilized vs live mode)","IC50 ratio IC50, per/IC50, live (LRRK2 engagement) ([2]; permeabilized vs live mode)",Dmax on G2019S MEFs ([3]; 24 h treatment) [%],"Dmax at 1 µM ([4]; Mus musculus, time course at 1000 nM, LRRK2^G2019S MEFs) [%]",EC50 ([4]; 24 h treatment) [nM],"T1/2 of Rab10 dephosphorylation (G2019S) ([4]; time course at 1000 nM, LRRK2^G2019S MEFs) [min]"
CNc1nc(Nc2ccc(C(=O)N3CCN(C[C@H]4CC[C@@H](CSC(C)(C)[C@H](NC(=O)C5(F)CC5)C(=O)N5C[C@H](O)CC5C(=O)NCc5ccc(-c6scnc6C)cc5)CC4)CC3)cc2OC)ncc1Cl (stereo partly drawn) [XL01134],880,780,2200,2000,7,78%,20 to 100,10 to 100,12,87,18,,,,,,,,
"CNc1nc(Nc2ccc(C(=O)N3CCN(C[C@H]4CC[C@H](CSC(C)(C)[C@H](NC(=O)C5(F)CC5)C(=O)N5C[C@H](O)CC5C(=O)NCc5ccc(-c6scnc6C)cc5)CC4)CC3)cc2OC)ncc1Cl (stereo partly drawn) [XL01126, (2S,4R)-1-((R)-3-((((1R,4R)-4-((4-(4-((5-chloro-4-(methylamino)pyrimidin-2-yl)amino)-3-methoxybenzoyl)piperazin-1-yl)methyl)cyclohexyl)methyl)thio)-2-(1-fluorocyclopropane-1-carboxamido)-3-methylbutanoyl)-4-hydroxy-N-(4-(4-methylthiazol-5-yl)benzyl)pyrrolidine-2-carboxamide]",10100,,1400,,14,80-90%,,,15,,18,poor displacement,poor displacement,,,,,,
"CNc1nc(Nc2ccc(C(=O)N3CCN(CCOCCOCCSC(C)(C)[C@H](NC(=O)C4(F)CC4)C(=O)N4C[C@H](O)C[C@H]4C(=O)NCc4ccc(-c5scnc5C)cc4)CC3)cc2OC)ncc1Cl [SD75, (2S,4R)-1-((R)-3-((2-(2-(2-(4-(4-((5-chloro-4-(methylamino)pyrimidin-2-yl)amino)-3-methoxybenzoyl)piperazin-1-yl)ethoxy)ethoxy)ethyl)thio)-2-(1-fluorocyclopropane-1-carboxamido)-3-methylbutanoyl)-4-hydroxy-N-(4-(4-methylthiazol-5-yl)benzyl)pyrrolidine-2-carboxamide]",2500,1900,1800,780,,,30 to 95,,,,,,,0.76,0.43,43,74,379,42
